{"source": "paper PMC7993833", "about": "“EDP-938, a novel nucleoprotein inhibitor of respiratory syncytial virus, demonstrates potent antiviral activities in vitro and in a non-human primate model” (PLoS Pathogens, 2021)", "key": {"RSV-A M37 [1]": {"tested_on": "RSV-A M37", "assay": "CPE assay, RSV-A M37 in HEp-2 cells", "assay_type": "cell-based", "conditions": "human respiratory syncytial virus", "procedure": "(§1) HEp-2, Vero, and BHK were seeded at 8,000 cells per well (cpw) in growth medium (Dulbecco’s Modified Eagle Medium (DMEM) with 1% GlutaMAX, 1% Penicillin/Streptomycin (P/S), 1% Non-Essential Amino Acids (NEAA), 10% Fetal Bovine Serum (FBS)) or (Minimum Essential Medium (MEM) with 10% FBS, 1% NEAA, 1% P/S) or (Eagle’s Minimum Essential Medium with L-Glutamine, with 10% FBS, 1% P/S) respectively. A549 seeded at 3,000 cpw in F-12K Kaighn’s Modification nutrient mixture with 10% FBS, 1% NEAA, 1% P/S. Cells seeded at time of infection in 96-well plates, final well volume 100μL. Compounds suspended in DMSO, serially diluted and added to wells at 0.5% final DMSO concentration. Viral stocks stabilized with 25% sucrose, previously titered using plaque assay, were added at desired MOI. Sucrose added to cells-only control wells to match percent added with virus. Unless otherwise noted, RSV-A strains were tested at 0.1 MOI and incubated for 5 days in a 37°C, 5% CO2 humidified incubator, and RSV-B at 0.5 MOI for 6 days. Cytopathic effect (CPE) determined using ATPlite (Perkin Elmer) measured with Envision luminometer. For RT-qPCR, RNA was extracted from whole well using Ambion RNAqueous-96 Automated Kit, and RT-qPCR run using Applied Biosystems TaqMan RNA-to-CT 1-Step Kit. […] All EC50s were calculated using the XLFit four-parameter logistic model 200 in Microsoft Excel."}, "RSV-B clinical isolates": {"tested_on": "RSV-B clinical isolates", "assay": "Susceptibility of USA-derived RSV-B clinical isolates", "assay_type": "cell-based", "conditions": "human respiratory syncytial virus", "procedure": "Serial dilutions of the compound were added to cells infected with RSV-A isolates at an MOI of 0.1 (except for isolate 629-9-2 at an MOI of 0.01) or RSV-B isolates at an MOI of 0.5 (expect for isolate 629-24/2007 at an MOI of 0.0044) and were treated for 5 or 6 days, respectively. […] This is consistent with the fact that the viral N protein, which is the putative target of the antiviral effect of EDP-938, is the most conserved RSV protein [11].\nHEp-2, Vero, and BHK were seeded at 8,000 cells per well (cpw) in growth medium (Dulbecco’s Modified Eagle Medium (DMEM) with 1% GlutaMAX, 1% Penicillin/Streptomycin (P/S), 1% Non-Essential Amino Acids (NEAA), 10% Fetal Bovine Serum (FBS)) or (Minimum Essential Medium (MEM) with 10% FBS, 1% NEAA, 1% P/S) or (Eagle’s Minimum Essential Medium with L-Glutamine, with 10% FBS, 1% P/S) respectively. A549 seeded at 3,000 cpw in F-12K Kaighn’s Modification nutrient mixture with 10% FBS, 1% NEAA, 1% P/S. Cells seeded at time of infection in 96-well plates, final well volume 100μL. Compounds suspended in DMSO, serially diluted and added to wells at 0.5% final DMSO concentration. […] Cytopathic effect (CPE) determined using ATPlite (Perkin Elmer) measured with Envision luminometer. […] All EC50s were calculated using the XLFit four-parameter logistic model 200 in Microsoft Excel. […]"}, "[2]": {"assay": "Plasma drug exposure in African Green monkey study", "assay_type": "in vivo, African Green monkeys (Chlorocebus)", "conditions": "both sexes, plasma, 100 mg/kg BID oral, read-out: mean plasma Ctrough", "source_text": "The African green monkey model was selected for EDP-938 in vivo studies for its higher level of viral replication versus cotton rats and BALB/c mice. […] In this previous trial, patients who achieved RSV-604 levels in excess of the EC90 experienced a 2.31 log reduction in viral load. […] The lack of antiviral activity observed with RSV-604 could be a function of relatively poor potency compared to EDP-938 (Fig 1) and/or insufficient tissue exposure. While in this study the animals were not sacrificed and thus the drug level in the lung could not be determined, plasma samples were taken at 12h after the last dose (Ctrough) to confirm drug exposure. […] It is reasonable to project that given the same dose or exposure EDP-938 should perform better than RSV-604 in RSV infected patients as well.\nA study of EDP-938 and RSV-604 in the African Green monkey (AGM) animal model was performed by BIOQUAL, Inc (Rockville, Maryland). Methods were similar to those run in a study by Ispas et al.. Six (6) male and 6 female AGMs (Chlorocebus) of 4–5 kg were purchased from PrimGen (Hines, Illinois). Each animal was challenged with 2 x 10^5 PFU of RSV A2 viral inoculum (Virapur, San Diego, CA). Four animals (2 per sex) in each group were treated with EDP-938, RSV-604, or vehicle control (0.5% w/v methylcellulose). […]"}, "HEK-293 cells": {"tested_on": "HEK-293 cells", "assay": "Cytotoxicity (ATPlite) in HEK-293 cells", "assay_type": "cell-based, human", "conditions": "at up to 50 μM, 3 days", "procedure": "(§2) HEp-2, A549, and CHO cells were seeded at 3,000 cpw in their respective growth medium. CHO growth medium used was RPMI medium 1640 with 10% FBS, 1% P/S, 1% GlutaMAX. HEK-293 cells seeded at 10,000 cpw in DMEM growth medium. Undifferentiated HBECs were seeded in collagen-coated 96-well plates at 7,500 cpw in appropriate growth medium. Compound added and incubated for 3 days (4 days for HBECs) as described above. Plates read with ATPlite and CC50 calculated as EC50s as described above. SI = CC50/EC50 within a cell line."}, "[3]": {"tested_on": "RSV-A and RSV-B laboratory strains", "assay": "CPE assay, RSV laboratory strains across primate cell lines", "assay_type": "cell-based", "conditions": "human respiratory syncytial virus, in Primates, read-out: EC50 values, inhibition of CPE (range over strains and cells)", "procedure": "The activity of EDP-938 against both RSV-A and RSV-B was evaluated in vitro against multiple laboratory strains commonly used for antiviral screens in HEp-2 cells, human adenocarcinomic alveolar basal epithelial cells (A549), monkey kidney-derived cells (Vero), and Baby Hamster Kidney cells (BHK). Serial dilutions of the compound were added to cells infected with RSV-A at a MOI of 0.1 or RSV-B at an MOI of 0.5 and treated for 5 or 6 days, respectively.\nHEp-2, Vero, and BHK were seeded at 8,000 cells per well (cpw) in growth medium (Dulbecco’s Modified Eagle Medium (DMEM) with 1% GlutaMAX, 1% Penicillin/Streptomycin (P/S), 1% Non-Essential Amino Acids (NEAA), 10% Fetal Bovine Serum (FBS)) or (Minimum Essential Medium (MEM) with 10% FBS, 1% NEAA, 1% P/S) or (Eagle’s Minimum Essential Medium with L-Glutamine, with 10% FBS, 1% P/S) respectively. A549 seeded at 3,000 cpw in F-12K Kaighn’s Modification nutrient mixture with 10% FBS, 1% NEAA, 1% P/S. Cells seeded at time of infection in 96-well plates, final well volume 100μL. Compounds suspended in DMSO, serially diluted and added to wells at 0.5% final DMSO concentration. […] Cytopathic effect (CPE) determined using ATPlite (Perkin Elmer) measured with Envision luminometer. […] All EC50s were calculated using the XLFit four-parameter logistic model 200 in Microsoft Excel."}, "RSV-A M37 [4]": {"tested_on": "RSV-A M37", "assay": "RT-qPCR assay, RSV-A M37 in HEp-2 cells", "assay_type": "cell-based", "conditions": "human respiratory syncytial virus", "procedure": "as §1"}, "[5]": {"tested_on": "GS-5806- and AZ-27-resistant RSV", "assay": "Activity against GS-5806- and AZ-27-selected resistant viruses", "assay_type": "cell-based, respiratory syncytial virus", "conditions": "GS-5806- and AZ-27-resistant viruses"}, "A549 cells": {"tested_on": "A549 cells", "assay": "Cytotoxicity (ATPlite) in A549 cells", "assay_type": "cell-based, human", "conditions": "at up to 50 μM, 3 days", "procedure": "as §2"}, "HEp-2 cells": {"tested_on": "HEp-2 cells", "assay": "Cytotoxicity (ATPlite) in HEp-2 cells", "assay_type": "cell-based, human", "conditions": "at up to 50 μM, 3 days", "procedure": "as §2"}, "RSV-B VR-955 [6]": {"tested_on": "RSV-B VR-955", "assay": "RT-qPCR assay, RSV-B VR-955 in A549 cells", "assay_type": "cell-based", "conditions": "human respiratory syncytial virus", "procedure": "as §1"}, "RSV-B VR-955 [7]": {"tested_on": "RSV-B VR-955", "assay": "RT-qPCR assay, RSV-B VR-955 in primary HBECs", "assay_type": "cell-based", "conditions": "human respiratory syncytial virus, primary HBEC"}}}
{"smiles": "O=C1Nc2ccccc2C(c2ccccc2)=N[C@@H]1Nc1nnc(-c2ncc(C(F)(F)F)cc2N2CCOCC2)o1", "note": "[EDP-938]", "values": [{"measurement": "EC50", "setting": "RSV-A M37 [1]", "value": "0.028 ± 0.004", "unit": "µM"}, {"measurement": "EC90", "setting": "RSV-A M37 [1]", "value": "0.034 ± 0.01", "unit": "µM"}, {"measurement": "EC50", "setting": "RSV-B clinical isolates", "value": 0.121, "unit": "µM"}, {"measurement": "concentration at 12 h after the last dose", "setting": "[2]", "value": 1480, "unit": "nM"}, {"measurement": "cytotoxicity", "setting": "HEK-293 cells", "value": "no significant cytotoxicity"}, {"measurement": "EC50", "setting": "[3]", "value": "0.028 to 0.072", "unit": "µM"}, {"measurement": "EC50", "setting": "RSV-A M37 [4]", "value": "0.054 ± 0.005", "unit": "µM"}, {"measurement": "EC90", "setting": "RSV-A M37 [4]", "value": "0.085 ± 0.021", "unit": "µM"}, {"measurement": "cross resistance of GS-5806- and AZ-27-resistant strains", "setting": "[5]", "value": "no signs of cross resistance"}, {"measurement": "cytotoxicity", "setting": "A549 cells", "value": "no significant cytotoxicity"}, {"measurement": "cytotoxicity", "setting": "HEp-2 cells", "value": "no significant cytotoxicity"}, {"measurement": "EC50", "setting": "RSV-B VR-955 [6]", "value": "0.083 ± 0.038", "unit": "µM"}, {"measurement": "EC90", "setting": "RSV-B VR-955 [6]", "value": "0.17 ± 0.053", "unit": "µM"}, {"measurement": "EC50", "setting": "RSV-B VR-955 [7]; 168 h, RSV-B VR-955 MOI 0.1, 7 days", "value": "0.064 ± 0.03", "unit": "µM"}, {"measurement": "EC90", "setting": "RSV-B VR-955 [7]; RSV-B VR-955", "value": "0.074 ± 0.033", "unit": "µM"}]}
